According to publication PMC10206591, “Identification of small molecules capable of enhancing viral membrane fusion” (Virology Journal, 2023):
Several values for one entry are separate records, joined by “and”; a condition that tells them apart may be missing. Identical values can stand only once. Counter-ions that a name gives are not always drawn.

Experiments:
[1] = test system: SARS-CoV-2 S-mediated membrane fusion
[2] = test system: SARS-CoV-2 S-mediated membrane fusion in the presence of TMPRSS2
[3] = test system: Hek 293T cells; assay: Cell viability, Cell-Titer Glo (ATP levels), Hek 293T; type: cell-based; details: 48 h, Fig. 6C
Procedure: (§1) The toxicity of the compounds was evaluated with Cell-Titer Glo (Promega) following the manufacturer’s indications. Briefly, cells were seeded (~ 1 × 10^4 cells/plate) in an opaque white 96-well plate and treated with the appropriate compound at the indicated concentration for 48 h. Next, 100 µl of CellTiter-Glo® reagent was added and let the luminescence signal stabilizes for 10 min. The luminescence was recorded on a VictorX multi-plate reader (Perking Elmer, Waltham, MA, USA).
(§2) Fig. 6 Toxicity of hit compounds. A, B The toxicity in Hek 293T and Vero E6 cells (A and B, respectively) was analyzed after incubating the compounds at the indicated concentration for 48 h. Toxicity was analyzed by measuring ATP levels using the Cell-Titer Glo assay (Promega) following the manufacturer’s indications. Dots represent the average of at least three independent experiments. C The CC10, CC50, and CC90 values were calculated with the data shown in panels A and B TEXT PRINTED IN THE PICTURE: (C) Latanoprost: Hek293T CC10 (μM): 16.2; Hek293T CC50 (μM): 63.9; Hek293T CC90 (μM): 270; Vero E6 CC10 (μM): 76.9; Vero E6 CC50 (μM): 124; Vero E6 CC90 (μM): 171 | (C) Diperodon: Hek293T CC10 (μM): 14.2; Hek293T CC50 (μM): 41; Hek293T CC90 (μM): 98.3; Vero E6 CC10 (μM): 24; Vero E6 CC50 (μM): 88; Vero E6 CC90 (μM): 153 | (C) Ethynylestradiol: Hek293T CC10 (μM): 11.8; Hek293T CC50 (μM): 49.9; Hek293T CC90 (μM): 169.9; Vero E6 CC10 (μM): 13.6; Vero E6 CC50 (μM): 96.6; Vero E6 CC90 (μM): 224 | (C) Simvastatin: Hek293T CC10 (μM): 8.0; Hek293T CC50 (μM): 34.2; Hek293T CC90 (μM): 125.8; Vero E6 CC10 (μM): 3.11; Vero E6 CC50 (μM): 6.02; Vero E6 CC90 (μM): 61.2 | (C) Rabeprazol: Hek293T CC10 (μM): 14.3; Hek293T CC50 (μM): 38.1; Hek293T CC90 (μM): 83.6; Vero E6 CC10 (μM): 51.6; Vero E6 CC50 (μM): 122.8; Vero E6 CC90 (μM): 194 | (C) Ethaverine: Hek293T CC10 (μM): 9.7; Hek293T CC50 (μM): 43.8; Hek293T CC90 (μM): 120.7; Vero E6 CC10 (μM): 45; Vero E6 CC50 (μM): 119.8; Vero E6 CC90 (μM): 194.7

[4] = as above; type: cell-based; details: human; for CC50 / CC90: 48 h
Procedure: as §1, §2

[5] = Cell viability, Cell-Titer Glo (ATP levels), Vero E6; type: cell-based; details: African green monkey, Fig. 6C; for CC50 / CC90: 48 h
Procedure: as §1, §2

[6] = test system: Vero E6 cells; assay: as above; type: cell-based; details: 48 h, Fig. 6C
Procedure: as §1, §2

[7] = test system: SARS-CoV-2; type: cell-based
[8] = test system: Nipah virus membrane fusion; type: cell-based; details: Hek 293T, NiV F and G, 48 h
[9] = test system: IAV/WSN/33; type: cell-based, Influenza A virus
[10] = Fig. 6C, read-out: Hek293T CC50
[11] = Fig. 6C, read-out: Hek293T CC90
[12] = Table 1, Hek 293T, read-out: CC50

**Q.** For Clc1ccc2c(c1)CCc1cccnc1C2=C1CCNCC1 [Desloratadine], which Z-score [1] is on record?
**A.** 1,59

**Q.** Which Z-score [1] does the source give for CCCCCC[C@H]1C(=O)O[C@H](C)[C@H](NC(=O)c2cccc(NC=O)c2O)C(=O)O[C@@H](C)[C@@H]1OC(=O)CC(C)C [Antimycin A] here?
**A.** 4,08

**Q.** Which results are given for CCC(C)(C)C(=O)O[C@H]1C[C@@H](C)C=C2C=C[C@H](C)[C@H](CC[C@@H]3C[C@@H](O)CC(=O)O3)[C@H]21 [Simvastatin]?
**A.** Activity index (Fusion % at CC50/CC50), NO TMPRSS2 [1]: 5,03; Fusion % at CC50, NO TMPRSS2 [1]: 172,00%; Z-score [1]: 1,72; increase in viral-induced membrane fusion (in words) [1]: stronger inducers; Activity index (Fusion % at CC50/CC50), TMPRSS2 [2]: 4,79; Fusion % at CC50, TMPRSS2 [2]: 163,57%; Hek293T CC10 [3]: 8.0 µM; CC50 at 48 h [4, 10]: 34.2 µM; CC90 at 48 h [4, 11]: 126 µM; CC50 at 48 h [4, 12]: 34.2 µM; CC50 at 48 h [5]: ~6 µM; CC90 at 48 h [5]: 61.2 µM; CC50 [6]: 6.02 µM; Vero E6 CC10 [6]: 3.11 µM

**Q.** With O=C(O)CN(CCN(CC(=O)O)CC(=O)O)CCN(CC(=O)O)CC(=O)O [Pentetic acid] as the compound, how does the Z-score [1] read?
**A.** 2,14

**Q.** For CCCOc1ccc2nc(NC(=O)OC)[nH]c2c1 [Oxibendazol], which Z-score [1] is on record?
**A.** 2,13

**Q.** What does the source list for COCCCOc1ccnc(C[S+]([O-])c2nc3ccccc3[nH]2)c1C (centres unmarked) [Rabeprazol]?
**A.** SARS-CoV-2 titer, Average [7]: 3.2x10^6 pfu/mL and 4.2x10^6 pfu/mL and 6.1x10^6 pfu/mL; effect on SARS-CoV-2 viral titers (in words) [7]: increased viral titers; Activity index (Fusion % at CC50/CC50), NO TMPRSS2 [1]: 4,70; Fusion % at CC50, NO TMPRSS2 [1]: 179,16%; Activity index (Fusion % at CC50/CC50), TMPRSS2 [2]: 6,39; Fusion % at CC50, TMPRSS2 [2]: 243,51%; Hek293T CC10 [3]: 14.3 µM; CC50 [4, 12]: 38.1 µM; CC50 [4, 10]: 38.1 µM; CC90 [4, 11]: 83.6 µM; effect on NiV-induced membrane fusion (in words) [8]: enhance viral-mediated membrane fusion in a mild dose-dependent manner; CC50 [5]: 123 µM; CC90 [5]: 194 µM; Vero E6 CC10 [6]: 51.6 µM; effect on IAV titers (in words) [9]: did not increase viral titers

**Q.** Which results are given for CCOc1ccc(Cc2nccc3cc(OCC)c(OCC)cc23)cc1OCC [Ethaverine]?
**A.** effect on SARS-CoV-2 viral titers (in words) [7]: did not increase or accelerate the growth; Activity index (Fusion % at CC50/CC50), NO TMPRSS2 [1]: 2,86; Fusion % at CC50, NO TMPRSS2 [1]: 125,39%; Activity index (Fusion % at CC50/CC50), TMPRSS2 [2]: 9,56; Fusion % at CC50, TMPRSS2 [2]: 419,22%; Hek293T CC10 [3]: 9.7 µM; CC50 [4, 12]: 43.8 µM; CC50 [4, 10]: 43.8 µM; CC90 [4, 11]: 121 µM; effect on NiV-induced membrane fusion (in words) [8]: enhance viral-mediated membrane fusion in a mild dose-dependent manner; CC50 [5]: 120 µM; CC90 [5]: 195 µM; Vero E6 CC10 [6]: 45 µM; effect on IAV titers (in words) [9]: did not increase viral titers

**Q.** Which Z-score [1] does the source give for O=C(O)Cc1cc(I)c(Oc2ccc(O)c(I)c2)c(I)c1 [Tiratricol, 3,3',5-triiodothyroacetic acid] here?
**A.** 4,40

**Q.** Which Z-score [1] does the source give for Cc1cc(N)c2ccccc2[n+]1CCCCCCCCCC[n+]1c(C)cc(N)c2ccccc21 [Dequalinium dichloride] here?
**A.** 4,90

**Q.** With O=C(Nc1ccccc1)OCC(CN1CCCCC1)OC(=O)Nc1ccccc1 (centres unmarked) [Diperodon] as the compound, how does the “Activity index (Fusion % at CC50/CC50), NO TMPRSS2” value [1] read?
**A.** 3,03

**Q.** What about the “Fusion % at CC50, NO TMPRSS2” value [1] of the same compound?
**A.** 123,98%

**Q.** What about the “Activity index (Fusion % at CC50/CC50), TMPRSS2” value [2] of the same compound?
**A.** 3,39

**Q.** And the “Fusion % at CC50, TMPRSS2” value [2]?
**A.** 138,77%

**Q.** And the “Hek293T CC10” value [3]?
**A.** 14.2 µM

**Q.** What about the CC50 [4, 12] of the same compound?
**A.** 41 µM

**Q.** What about the CC50 [4, 10] of the same compound?
**A.** 41 µM

**Q.** And the CC90 [4, 11]?
**A.** 98.3 µM

**Q.** What about the CC50 [5] of the same compound?
**A.** 88 µM

**Q.** What about the CC90 [5] of the same compound?
**A.** 153 µM

**Q.** And the “Vero E6 CC10” value [6]?
**A.** 24 µM

**Q.** With C[C@H]1c2cccc(O)c2C(=O)C2=C(O)[C@]3(O)C(=O)C(C(N)=O)=C(O)[C@@H](N(C)C)[C@@H]3[C@@H](O)[C@@H]21 [Doxycycline hydrochloride] as the compound, how does the Z-score [1] read?
**A.** 3,00

**Q.** For O=P(O)(O)C(O)(Cn1ccnc1)P(=O)(O)O [Zoledronic acid hydrate], which Z-score [1] is on record?
**A.** 2,27

**Q.** Which Z-score [1] does the source give for Nc1nc(Cl)nc2c1ncn2[C@H]1C[C@H](O)[C@@H](CO)O1 [Cladribine] here?
**A.** 1,60

**Q.** For CCCC1C(=O)N2C(N(C)C)=Nc3ccc(C)cc3N2C1=O (centres unmarked) [Azapropazone], which Z-score [1] is on record?
**A.** 1,91

**Q.** With COC(=O)Nc1nc2ccc([S+]([O-])c3ccccc3)cc2[nH]1 (centres unmarked) [Oxfendazol] as the compound, how does the Z-score [1] read?
**A.** 1,63
